Source: patent US20250042891A1, “Compound containing structure of a heteroaromatic ring, pharmaceutical composition thereof and application thereof” (SHANGHAI YINGLI PHARMACEUTICAL CO., LTD, priority 2023, published 2025)

Tests used:
[1] = target: PARG (389-976) (Homo sapiens (Human), UniProt Q86W56); experiment: PARG enzyme inhibition assay (TR-FRET); format: biochemical
Description: PARG in vitro assays were conducted in standard 384-well plates in a total volume of 15 μL. 5 μL of PARG (389-976) (manufactured by Chempartner Chemical Co., Ltd.) in buffer (50 mM Tris-HCL 7.5, 30 mM KCl, 1 mM EDTA, 3 mM DTT, tween-20 0.01%, BSA 0.025%) was added at a final concentration of 1.5 pM to the 384-well plates containing the compounds to be tested, which was incubated for 30 min at room temperature. To the above mixture was added 5 μL Bio PARylated His-TEV-PARP1(2-1014) substrate (manufactured by Chempartner Chemical Co., Ltd.) at a final concentration of 12 nM, after addition, the resulting mixture was incubated for 30 minutes at room temperature. Then to the mixture was added detection reagent (5 μL) which was buffered with 50 mM Tris-HCL 7.5, 30 mM KCl, 1 mM EDTA, 3 mM DTT, tween-20 0.01%, BSA 0.025%, and consisted of 3 μM of compound PDD00017273 and 9 nM Mab anti-6HIS XL665 (Cisbio: 61HISXLA) and 0.9 nM streptavidin affinity terbium cryptate (Cisbio:610SATLA), all at 3× working concentrations (final concentrations of 1 μM, 3 nM and 0.3 nM, respectively). After 120 min incubation in the dark at room temperature, TR-FRET signals were measured at Ex 340 and Em 665 and Em 615. The ratio for each well was calculated as Em 665/Em 615 and the compound inhibition rate was calculated based on the obtained data.

[2] = test system: HCC1428; experiment: CTG assay for proliferation inhibition of cell lines; format: cell-based; conditions: HCC1428, 7 days, CellTiter Glo
Description: (§1) The assay was conducted on either 384-well plates or 96-well plates. The procedures are as follows:
(§2) The cell suspensions were added to 384- or 96-well plates (384-well plate: 50 μL; 96-well plate: 100 μL) except for peripheral wells. The plates were incubated in a carbon dioxide incubator overnight, HCC1395, HCC1428 and NCI-H460 were placed in a carbon dioxide incubator of 5%, […] overnight. Prepared compounds (10 concentration gradients by serial 3-fold dilution) were added to the wells using the HPD300 micro-dosing instrument. The cell plates were incubated in a carbon dioxide incubator for 7 days. HCC1395, HCC1428 and NCI-H460 were incubated in a 5%, 37° CO2 incubator. On the day of plate measurement, 384- or 96-well plates were first equilibrated at room temperature for 10-30 minutes, then to the 384- or 96-well plate was added CellTiter Glo reagent (384-well plate: 25 μL; 96-well plate: 100 μL), shaken for 10 minutes away from light, and incubated for 10 minutes. The incubated plates were placed into Victor NIVO reader plates, and the pharmacodynamic inhibition curves were plotted and IC50 values were calculated using XLFit.

[3] = test system: HCC1395; experiment: as above; format: cell-based; conditions: HCC1395, 7 days, CellTiter Glo
Description: as §1, §2

[4] = class symbol, Bio PARylated His-TEV-PARP1 substrate, TR-FRET
[5] = numeric value in parentheses under the class symbol

Chain of PARG (389-976) (Q86W56 389-976): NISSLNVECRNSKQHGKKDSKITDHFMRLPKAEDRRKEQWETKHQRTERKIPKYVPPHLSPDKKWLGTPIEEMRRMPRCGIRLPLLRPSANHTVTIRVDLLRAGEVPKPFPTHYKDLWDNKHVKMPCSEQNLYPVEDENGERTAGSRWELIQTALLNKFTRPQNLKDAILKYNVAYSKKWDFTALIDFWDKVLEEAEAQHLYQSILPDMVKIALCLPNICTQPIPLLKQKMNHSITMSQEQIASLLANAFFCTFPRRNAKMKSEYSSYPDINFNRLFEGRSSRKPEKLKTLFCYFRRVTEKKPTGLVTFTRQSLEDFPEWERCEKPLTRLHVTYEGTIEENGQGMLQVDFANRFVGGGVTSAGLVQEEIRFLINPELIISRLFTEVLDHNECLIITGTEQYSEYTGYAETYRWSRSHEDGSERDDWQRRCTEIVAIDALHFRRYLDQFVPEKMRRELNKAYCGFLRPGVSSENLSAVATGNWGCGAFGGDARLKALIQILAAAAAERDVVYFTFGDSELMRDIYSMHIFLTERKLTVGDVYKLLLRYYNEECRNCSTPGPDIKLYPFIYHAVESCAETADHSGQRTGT

Row | IC50 [1, 4] [nM] | IC50 [1, 5] [nM] | IC50 [2] [µM] | IC50 [3] [µM] | SMILES
1 | < 1 | 0.2 |  |  | COCCn1nc(-c2nnc(C(F)F)s2)c2cc(S(=O)(=O)NC3(C#N)CC3)cc(C3=CCN(S(=O)(=O)C(C)C)CC3)c21 [Compound 1]
2 | < 1 | 0.27 | 0.413 |  | COCCn1nc(-c2nnc(C(F)F)s2)c2cc(S(=O)(=O)NC3(C#N)CC3)cc(N3CCN(S(=O)(=O)C(C)C)CC3)c21 [Compound 2]
3 | 1 to 10 |  |  |  | CC(C)S(=O)(=O)N1CCC=C(c2cc(S(=O)(=O)NC3(C#N)CC3)cc3c(-c4nnc(C(F)F)s4)nn(C)c23)C1 [Compound 4]
4 | < 1 |  |  | 0.442 | CC(C)S(=O)(=O)N1CC=C(c2cc(S(=O)(=O)NC3(C#N)CC3)cc3c(-c4nnc(C(F)F)o4)nn(C)c23)CC1 [Compound 6]
5 | 1 to 10 |  |  |  | CC(C)S(=O)(=O)N1CCN(c2cc(S(=O)(=O)NC3(C#N)CC3)cc3c2cnn3-c2nnc(C(F)F)s2)CC1 [Compound 8]
6 | 1 to 10 |  |  |  | CC(C)S(=O)(=O)N1CC=C(c2cc(S(=O)(=O)NC3(C#N)CC3)cc3c(-c4nnc(C(F)F)s4)csc23)CC1 [Compound 10]
7 | < 1 |  |  |  | Cn1nc(-c2nnc(C(F)F)s2)c2cc(S(=O)(=O)NC3(C#N)CC3)cc(C3=CCN(S(=O)(=O)C4CC4)CC3)c21 [Compound 11]
8 | 1 to 10 |  |  |  | CC(C)CS(=O)(=O)N1CC=C(c2cc(S(=O)(=O)NC3(C#N)CC3)cc3c(-c4nnc(C(F)F)s4)nn(C)c23)CC1 [Compound 13]
9 | 1 to 10 |  |  |  | CC(C)S(=O)(=O)N1CC=C(c2cc(S(=O)(=O)NC3(C(N)=O)CC3)cc3c(-c4nnc(C(F)F)s4)nn(C)c23)CC1 [Compound 17]
10 | 1 to 10 |  |  |  | CC(C)S(=O)(=O)N1CCC(O)(c2cc(S(=O)(=O)NC3(C#N)CC3)cc3c(-c4nnc(C(F)F)s4)n[nH]c23)CC1 [Compound 27]
11 | 1 to 10 |  |  |  | CC(C)S(=O)(=O)N1CCC(O)(c2cc(S(=O)(=O)NC3(C#N)CC3)cc3c(-c4nnc(C(F)F)s4)nn(C)c23)CC1 [Compound 28]
12 | 10 to 100 |  |  |  | CC(C)SC1CC=C(c2cc(S(=O)(=O)NC3(C#N)CC3)cc3c(-c4nnc(C(F)F)s4)nn(C)c23)CC1 (centres unmarked) [Compound 29]
13 | 10 to 100 |  |  |  | CC(C)S(=O)(=O)N1CCC(c2cc(S(=O)(=O)NC3(C#N)CC3)cc3c(-c4nnc(C(F)F)s4)nn(C)c23)=C(C(=O)O)C1 [Compound 34]
14 | 100 to 1000 |  |  |  | CC(C)Sc1ncc(-c2cc(S(=O)(=O)NC3(C#N)CC3)cc3c(-c4nnc(C(F)F)s4)nn(C)c23)cn1 [Compound 41]
15 | 1 to 10 |  |  |  | CC(C)[S+]([O-])c1ncc(-c2cc(S(=O)(=O)NC3(C#N)CC3)cc3c(-c4nnc(C(F)F)s4)nn(C)c23)cn1 (centres unmarked) [Compound 42]
16 | 100 to 1000 |  |  |  | CC(C)S(=O)(=O)c1ncc(-c2cc(S(=O)(=O)NC3(C#N)CC3)cc3c(-c4nnc(C(F)F)s4)nn(C)c23)cn1 [Compound 43]
17 | < 1 |  | 1.7 |  | CC(C)[S+]([O-])c1ccc(-c2cc(S(=O)(=O)NC3(C#N)CC3)cc3c(-c4nnc(C(F)(F)F)s4)nn(C)c23)cn1 (centres unmarked) [Compound 46]
18 | 1 to 10 |  | 1.91 |  | CC(C)S(=O)(=O)c1ccc(-c2cc(S(=O)(=O)NC3(C#N)CC3)cc3c(-c4nnc(C(F)(F)F)s4)nn(C)c23)cn1 [Compound 47]
19 | 100 to 1000 |  |  |  | CC(C)S(=O)(=O)c1ccc(-c2cc(S(=O)(=O)NC3(C#N)CC3)cc3c(-c4nnc(C(F)(F)F)s4)nn(C)c23)nc1 [Compound 49]
20 | 10 to 100 |  | 2.33 |  | Cn1nc(-c2nnc(C(F)(F)F)s2)c2cc(S(=O)(=O)NC3(C#N)CC3)cc(C3=CCN(S(=O)(=O)c4ccccc4)CC3)c21 [Compound 50]
21 | 1 to 10 |  | 2.52 |  | Cn1nc(-c2nnc(C(F)(F)F)s2)c2cc(S(=O)(=O)NC3(C#N)CC3)cc(C3=CCN(S(=O)(=O)c4cccnc4)CC3)c21 [Compound 51]

Row | IC50 [1, 4] [nM] | IC50 [1, 5] [nM] | IC50 [2] [µM] | IC50 [3] [µM] | SMILES
22 | 1 to 10 |  | 1.06 | 1.38 | CC(C)S(=O)(=O)N1Cc2cn(-c3cc(S(=O)(=O)NC4(C#N)CC4)cc4c(-c5nnc(C(F)F)s5)nn(C)c34)nc2C1 [Compound 52]
23 | < 1 |  | 0.207 | 0.392 | CC(C)S(=O)(=O)N1CC=C(c2cc(S(=O)(=O)NC3(C#N)CC3)cc3c(-c4noc(C(F)(F)F)n4)nn(C)c23)CC1 [Compound 53]
24 | 10 to 100 |  |  |  | CC(C)S(=O)(=O)N1CCC(c2cc(S(=O)(=O)NC3(C#N)CC3)cc3c(-c4nnc(C(F)(F)F)s4)nn(C)c23)=C(C(=O)O)C1 [Compound 54]
25 | < 1 |  | 0.208 | 0.836 | CC(C)S(=O)(=O)N1CCC(c2cc(S(=O)(=O)NC3(C#N)CC3)cc3c(-c4nnc(C(F)(F)F)s4)nn(C)c23)=C(C(N)=O)C1 [Compound 55]
26 | < 1 |  | 0.0472 | 0.0475 | CC(C)S(=O)(=O)N1CCN(c2c(F)c(S(=O)(=O)NC3(C#N)CC3)cc3c(-c4nnc(C(F)(F)F)s4)nn(C)c23)CC1 [Compound 56]
27 | 10 to 100 |  |  |  | CC(C)S(=O)(=O)N1CC=C(c2cc(S(=O)(=O)NC3(C(N)=O)CC3)cc3c(-c4nnc(C(F)(F)F)s4)nn(C)c23)CC1 [Compound 57]
28 | < 1 |  | 1.68 | 1.63 | CC(C)S(=O)(=O)N1CC=C(c2cc(S(=O)(=O)NC3(C#N)CC3)cc3c(-c4nnc(C(F)(F)F)s4)nn(CC4CNC4)c23)CC1 [Compound 61]
29 | 10 to 100 |  |  |  | CC(C)S(=O)(=O)N1CC=C(c2cc(S(=O)(=O)NC3(C#N)CC3)cc3c(-c4nnc(C(F)(F)F)s4)nn(Cc4ccccc4)c23)CC1 [Compound 62]
30 | 100 to 1000 |  |  |  | CC(C)S(=O)(=O)c1ccc(-c2cc(S(=O)(=O)NC3(C#N)CC3)cc3c(-c4nnc(C(F)F)s4)nn(C)c23)nc1 [Compound 63]
31 | < 1 |  | 0.0882 |  | CC(C)S(=O)(=O)N1CCC(c2cc(S(=O)(=O)NC3(C#N)CC3)cc3c(-c4nnc(C(F)(F)F)s4)nn(C)c23)=C(C#N)C1 [Compound 64]
32 | 1 to 10 |  |  |  | CC(C)S(=O)(=O)N1CC=C(c2cc(S(=O)(=O)NC3(C#N)CC3)cc3c2ccn3-c2nnc(C(F)(F)F)s2)CC1 [Compound 65]
33 | 1 to 10 |  |  |  | CC(C)S(=O)(=O)N1CC=C(c2cc(S(=O)(=O)NC3(C#N)CC3)cc3c(-c4nnc(C(F)F)s4)nn(CC(N)=O)c23)CC1 [Compound 66]
34 | < 1 |  | 0.203 |  | CC(C)S(=O)(=O)N1CC=C(c2cc(S(=O)(=O)NC3(C#N)CC3)cc3c(-c4nnc(C(F)F)s4)nn(C)c23)C(F)(F)C1 [Compound 67]
35 | < 1 |  | 0.47 |  | CC(C)S(=O)(=O)N1CCC(c2cc(S(=O)(=O)NC3(C#N)CC3)cc3c(-c4nnc(C(F)F)s4)nn(C)c23)=C(F)C1 [Compound 68]
36 | < 1 |  | 0.343 | 0.27 | CC(C)S(=O)(=O)N1CCC(c2cc(S(=O)(=O)NC3(C#N)CC3)cc3c(-c4nnc(C(F)F)s4)nn(C)c23)=C(C=O)C1 [Compound 70]
37 | < 1 |  | 0.342 | 0.308 | CC(C)S(=O)(=O)N1CCC(c2cc(S(=O)(=O)NC3(C#N)CC3)cc3c(-c4nnc(C(F)F)s4)nn(C)c23)=C(CN(C)C)C1 [Compound 71]
38 | < 1 |  |  | 0.0352 | CC1=C(c2cc(S(=O)(=O)NC3(C#N)CC3)cc3c(-c4nnc(C(F)(F)F)s4)nn(C)c23)CCN(S(=O)(=O)C(C)C)C1 [Compound 75]
39 | 10 to 100 |  |  |  | CC(C)S(=O)(=O)N1CC=C(c2cc(S(=O)(=O)NC3(C#N)CC3)cc3c2nnn3-c2nnc(C(F)(F)F)s2)CC1 [Compound 80]
40 | 100 to 1000 |  |  |  | CC(C)S(=O)(=O)N1CC=C(c2cc(S(=O)(=O)NC3(C#N)CC3)cc3c(-c4cc(C(F)(F)F)nn4C)nn(C)c23)CC1 [Compound 81]
41 | < 1 |  |  |  | CC(C)S(=O)(=O)N1CCN(c2cc(S(=O)(=O)NC3(C#N)CC3)cc3c(-c4nnc(C(F)(F)F)s4)nn(C)c23)C=N1 [Compound 85]
42 | 1 to 10 |  |  |  | Cc1cc(Cn2c(=O)n(Cc3cnc(C)s3)c(=O)c3cc(S(=O)(=O)NC4(C)CC4)ccc32)n(C)n1 [PDD 00017273, reference compound]

Row | SMILES | IC50 [1, 4] [nM] | IC50 [1, 5] [nM] | IC50 [2] [µM] | IC50 [3] [µM]
43 | CN(C)S(=O)(=O)N1CCN(c2cc(S(=O)(=O)NC3(C#N)CC3)cc3c(-c4nnc(C(F)F)s4)nn(C)c23)CC1 [Compound 3] | 1 to 10 | 1.64 |  | 0.386
